According to patent US20090275633A1, “Novel Tumour Suppressor” (ONCOMETHYLOME SCIENCES SA, priority 2006, published 2009):
Entries after “also recorded” stand apart in the source; their conditions may differ.

Assays:
[1] = test system: colon cancer cell lines (RKO, Co115, HCT-116, SW48, LoVo); assay: Cell cycle analysis (percentage of cells in G2/M, propidium iodide flow cytometry); format: cell-based, human; details: for blockage of the cell cycle at G2/M: all cancer cell lines independently of HDAC2 status; for G2/M cell cycle arrest: TSA
Description: (§1) Human colorectal and endometrial cancer cell lines were obtained from the American Type Culture Collection. HDAC inhibition treatment was developed adding 0.25 μM trichostatin A, 10 mM sodium valproate or 10 mM sodium butyrate to the culture medium for 24 hours. We obtained DNA samples from 228 human primary malignancies corresponding to colon tumors of HPNCC patients (n=47) and sporadic MSI+colon (n=127), MSI-colon (n=40), gastric (n=38) and endometrial carcinomas (n=16), as well as normal colon tissue (n=6), at the time of clinically indicated surgical procedures. Normal lymphocytes from healthy donors (n=50) was also used. DNA was extracted using standard protocols.
(§2) The percentage of apoptotic cells was determined by flow cytomery using Vybrant® Apoptosis Assay Kit #4-YO-PRO®-1/propidium iodide (Molecular Probes/Invitrogen). To analyze the cell cycle profiles, we stained with propidium iodide and the percentage of cells in G2/M was determined by flow cytometry.

[2] = test system: colon cancer cell lines (RKO, Co115, HCT-116, SW48, LoVo); assay: Cell viability (MTT assay) of colon cancer cell lines; format: cell-based, human; details: for inhibition of proliferation: all cancer cell lines independently of HDAC2 status
Description: Cells were treated for 48 h with different concentrations of TSA (0-1000 nM). Experiments were performed in triplicate.
(§3) FIG. 5. […] Experiments were performed in triplicate.
as §1
Cell viability was determined as previously described5. Aliquots of 1.5×10^4 cells were plated in 96-well microdilution plates. Following overnight cell adherence, experimental media containing the drugs or control media was added to appropriate wells. After 48 hours, the media was replaced by drug-free fresh media (100 μl/well) containing MTT (50 μg). After a 3 hour incubation at 37° C. in 5% CO2 atmosphere, the MTT was removed and MTT-formazan crystals were dissolved in DMSO (100 μl/well). Absorbance at 570 nm was determined on an automatized microtiter plate reader.

[3] = test system: colon cancer cell lines (RKO, Co115, HCT-116, SW48, LoVo); assay: Apoptosis by flow cytometry (YO-PRO-1/propidium iodide); format: cell-based, human; parameters: apoptosis (propidium iodide): dose or concentration left out as unconfirmed; details: for apoptosis (propidium iodide): HDAC2-deficient RKO cells, 24 h with SAHA
Description: as §3, §1, §2

[4] = test system: histones H3 and H4 in colorectal cancer cell lines RKO, Co115, HCT-116, SW48 and LoVo; assay: Histone H3 and H4 acetylation levels (western blot, HPCE) after treatment with HDAC inhibitors; format: cell-based, human; details: 24 hours
Excerpt: To address these issues we assessed the effects of three classical HDACis, the hydroxamic acid trichostatin A and the carboxylic acids butyrate and valproate, on five colorectal cancer cell lines: the HDAC2-mutant cell lines RKO and Co115, and the HDAC2-wild type cell lines HCT-116, SW48 and LoVo. We analyzed the acetylation levels at histones H3 and H4 using western blotting with antibodies raised against tetraacetylated peptides of histones H3 and […], and high-performance capillary electrophoresis (HPCE)^3. […] The HDAC2-deficient cells were resistant to trichostatin A action from a biochemical and also a cellular point of view.
as §1
We prepared histones in accordance with established protocols1. We obtained histones from cell lines and tumor samples in parallel with their matching controls under identical conditions. For cell lines, we isolated nuclei with RSB buffer (10 mM Tris 10 (pH 7.5), 10 mM NaCl and 3 mM MgCl2) containing I—Nonidet-P40 and protease inhibitors. We extracted nuclei with 0.25 M HCl and precipitated them with eight volumes of acetone. For tumors and their normal tissue counterparts, we homogenized samples with a Polytron homogenizer (Brinkman Instruments) in 0.25 M HCl and incubated them with gentle agitation for 4 h. We precipitated the resulting supernatant with eight volumes of acetone. We then fractionated individual histones by reverse-phase HPLC on a Jupiter C18 column. We made comparisons only between samples extracted with identical methodology.
For western blotting, we collected cells by centrifugation and washed cell pellets twice with phosphate-buffered saline buffer. For HDAC2 expression, nuclear extracts were fractionated on a 7.5% SDS-PAGE gel, transferred the fractions to a polyvinylidene difluoride membrane with […] (Immobilon PSQ, Millipore), blocked the membrane in 5% milk PBS-T (phosphate-buffered saline with 0.1% Tween-20) and immunoprobed it with antibodies to HDAC2 (1:1000) and HDAC1 (1:1000; both from Abcam). The acetylated forms of histones 3 and 4 were analyzed as previously described2. We extracted the histones directly from the cell pellets with 0.250 M HCl. We fractionated 10 μg of the acid-extracted proteins on a 10% SDS-PAGE gel. Transferred membranes were immunoprobed with antibodies to acetylated H4 (1:2,000, Upstate) and acetylated H3 (1:50,000, Upstate). We used horseradish peroxidase-conjugated antibody to rabbit IgG (Amersham) at 1:3,000 dilution in PBS-T as the secondary antibody and antibody to H4 (1:3,000; Upstate) as a loading control. For immunolocalization experiments, we grew cells on coverslips and stained them with antibodies against HDAC2 and HDAC1 (Abcam) as previously described. We obtained images with a Leica DMRD photomicroscope coupled to a Leica DC200 camera, processed them using Adobe Photoshop software and analyzed them using public National Institutes of Health Image software. Immunohistochemical staining of HDAC2 was performed using a polyclonal antibody (Abcam, Cambridge, UK) at a 1:1500 dilution. After antigen retrieval with citrate buffer, immunodetection was performed by the DAKO EnVision Visualization Method (DAKO, Glostrup, Denmark), with diaminobenzidine chromogen as the substrate
We quantified global histone H4 acetylation as previously described3. […]

[5] = test system: HCT116, RKO and Co115 tumor xenografts; assay: Mouse xenograft model with PBS, TSA and BUT treatments; format: in vivo, athymic nude mice
Excerpt: a, PBS, BUT and TSA treated female athymic nude mice 17 days after injection of RKO (left flank) and HCT116 (right flank) cells.
b, Tumors were excised and weighed. Tumor detail in cm and weight in mg for PBS-, BUT- and TSA-HCT116, RKO and C0115 cells.
c, Effect of the HDAC inhibitors TSA and sodium butyrate (But) on the in vivo growth of HCT116, RKO and C0115. Tumor size was monitored over time and size in mm3. Dark square: PBS treatment, Dark circle: TSA treatment, Dark triangle: BUT treatment.
Six-week-old female athymic nude mice nu/nu (Harlam Sprague-Dawley, Indianapolis, Ind.), housed under specific pathogen-free conditions (Institutional Animal Welfare Committee Agreement), were used for HCT116, RKO and Co115 tumor xenografts. For treatments, animals were randomly separated in three seven-specimens-groups, differentiated for PBS (Control), TSA (Trichostatin A) and BUT (Butyric acid) treatments. Both flanks of each animal were injected s.c. with 106 (HCT116) or 2×106 (RKO and CO115) cells in a total volume of 200 μL of PBS. For transfections assays both flanks of each animal were injected subcutaneously with 2×106 RKO (left) or RKO-HDAC2-transfected (right) cells in a total volume of 200 μL of PBS. Tumor development at the site of injection was evaluated daily. Animals were sacrificed at 21 days. The tumors were then excised and weighed.

[6] = test system: HDAC2-knocked down HCT116 cells; format: cell-based, human
Excerpt: (§4) We quantified global histone H4 acetylation as previously described3. We prepared individual histone fractions from cell nuclei and purified them by reverse-phase HPLC on a Jupiter C18 column (Phenomenex, Inc.) with an acetonitrile gradient (20-60%) in 0.3% trifluoroacetic acid, using a HPLC gradient system (Beckman-Coulter). We resolved non-, mono, di-, tri- and tetra-acetylated histone H4 derivatives by HPCE. We used an uncoated fused-silica capillary (Beckman-Coulter; 60.2 cm 75 μm, effective length 50 cm) in a capillary electrophoresis system (P/ACE MDQ, Beckman-Coulter) with 100 mM phosphate buffer (pH 2.0) 0.02% (w/v) HPM-cellulose as running buffer and operating voltages of 12 kV.

[7] = test system: RKO-HDAC2-transfected cells; assay: H4 acetylation by HPCE in RKO cells transfected with HDAC2; format: cell-based, human; details: RKO cells transfected with wild-type HDAC2
Excerpt: b, Quantification of H4 acetylation by HPCE.
as §4
The HDAC2 expression vector pcDNA3-HDAC2 was constructed by cloning the cDNA corresponding to the gene HDAC2 in pcDNA vector (Invitrogen). […] C1ones expressing HDAC2 were selected in complete medium supplemented with 1 mg/mL G418. Stable clones were maintained in complete medium with 1 mg/mL G418. For colony formation experiments, stable G418-resistant colonies were fixed, stained with 2% methylene blue in 60% methanol, and the average number of colonies present in each well was determined.

[8] = all cancer cell lines independently of HDAC2 status
[9] = all colorectal cell lines irrespective of HDAC2 status, 10 mM sodium valproate or 10 mM sodium butyrate
[10] = HDAC2-proficient cell lines, TSA
[11] = HDAC2-proficient cell lines, TSA, listed as TSA

## CCCC(CCC)C(=O)[O-].[Na+] [valproate, sodium valproate]
[1]
  blockage of the cell cycle at G2/M: able to induce blockage of the cell cycle at G2/M
[2]
  inhibition of proliferation: significantly inhibited proliferation
[3]; [8]
  induction of apoptosis: induced apoptosis
[4]; [9]
  hyperacetylation of histones H3 and H4: induce hyperacetylation in all cells; also recorded: able to induce hyperacetylation

## O=C(CCCCCCC(=O)Nc1ccccc1)NO [SAHA, suberoylanilide hydroxamic acid]
[3]
  apoptosis (propidium iodide): enhanced resistance
[3]; listed as suberoylanilide hydroxamic acid (SAHA)
  apoptosis (propidium iodide): unable to efficiently inhibit cell growth and induce apoptosis

## CCCC(=O)[O-].[Na+] [butyrate, sodium butyrate]
[1]
  blockage of the cell cycle at G2/M: able to induce blockage of the cell cycle at G2/M
[5]; all cancer cell lines xenografted in nude mice (HCT-116, RKO, Co115), independently of HDAC2 status
  tumor shrinkage: induced tumor shrinkage
[2]
  inhibition of proliferation: significantly inhibited proliferation
[3]; [8]
  induction of apoptosis: induced apoptosis
[4]; [9]
  hyperacetylation of histones H3 and H4: induce hyperacetylation in all cells; also recorded: able to induce hyperacetylation

## CC(/C=C/C(=O)NO)=C\[C@@H](C)C(=O)c1ccc(N(C)C)cc1 [trichostatin A]
[1]; HDAC2-mutant cells (RKO)
  G2/M cell cycle arrest: remained highly resistant
[1]; HDAC2-mutant cells (RKO), listed as TSA
  G2/M cell cycle arrest: marked resistance
[1]; HDAC2-proficient cell lines
  G2/M cell cycle arrest: only able to accomplish these effects in the HDAC2-proficient cell lines
[1]; HDAC2-proficient cell lines, listed as TSA
  G2/M cell cycle arrest: induces
[5]; HDAC2-mutant RKO and Co115 xenografts in nude mice
  tumor shrinkage: remained highly resistant
[5]; HDAC2-mutant RKO and Co115 xenografts in nude mice, listed as TSA
  tumor shrinkage: remained resistant
[5]; HDAC2-proficient HCT-116 xenografts in nude mice
  tumor shrinkage: only able to accomplish these effects in the HDAC2-proficient cell line (HCT-116)
[6]
  histone H4 acetylation mediated by TSA (HPCE): resistant to histone acetylation; also recorded: resistance
[2]; HDAC2-deficient cancer cells, general statement
  biochemical and cellular (antiproliferative and proapoptotic) effects of HDAC inhibitors: resistant; also recorded: impairs
[2]; HDAC2-deficient cells (RKO, Co115), TSA 0-1000 nM, 48 h
  cell growth inhibition: remained highly resistant
[2]; HDAC2-deficient cells (RKO, Co115), TSA 0-1000 nM, 48 h, listed as TSA
  cell growth inhibition: marked resistance; also recorded: enhanced resistance
[2]; [10]
  cell growth inhibition: only able to accomplish these effects in the HDAC2-proficient cell lines
[2]; [11]
  cell growth inhibition: induces
[3]; HDAC2-mutant cells (RKO), TSA
  induction of apoptosis: remained highly resistant
[3]; HDAC2-mutant cells (RKO), TSA, listed as TSA
  induction of apoptosis: marked resistance
[3]; [10]
  induction of apoptosis: only able to accomplish these effects in the HDAC2-proficient cell lines
[3]; [11]
  induction of apoptosis: induces
[4]; HDAC2-deficient RKO and Co115 cell lines, 0.25 μM trichostatin A
  hyperacetylation of histones H3 and H4: unable to induce the hyperacetylation
[4]; HDAC2-deficient RKO and Co115 cell lines, 0.25 μM trichostatin A, listed as TSA
  hyperacetylation of histones H3 and H4: does not induce histone hyperacetylation
[4]; HDAC2-wild type cells (HCT-116, SW48, LoVo), 0.25 μM trichostatin A
  hyperacetylation of histones H3 and H4: effective
[4]; HDAC2-wild type cells (HCT-116, SW48, LoVo), 0.25 μM trichostatin A, listed as TSA
  hyperacetylation of histones H3 and H4: hyperacetylation is achieved
[7]
  histone H4 acetylation mediated by TSA (HPCE): more sensitive
[7]; listed as TSA
  histone H4 acetylation mediated by TSA (HPCE): show resistance to histone acetylation
